Consider nine molecules from ChEMBL document CHEMBL5543166, “Development of Benziodarone Analogues with Enhanced Potency for Selective Binding to Transthyretin in Human Plasma” (J Med Chem, 2024).

In brackets after ≈: the same amount, converted by molar mass.

Data set [1] in a line: C0 in male Sprague-Dawley rat at 0.1 mg/kg, iv measured upto 8 hrs by LC-MS/MS analysis. The conditions noted are these: in vivo.
Data set [2] can be described thus: Tmax in male Sprague-Dawley rat at 0.1 mg/kg, po measured […] by LC-MS/MS analysis. The data set is classed as ADME, organism-based. To be noted: in vivo.
Data set [3] is described as follows: AUC (0 to 8 hrs) in male Sprague-Dawley rat at 0.1 mg/kg, iv measured upto 8 hrs by LC-MS/MS analysis. The data set is classed as ADME, organism-based. The conditions noted are these: in vivo.
A short description of data set [4]: Total clearance in male Sprague-Dawley rat at 0.1 mg/kg, iv measured upto 8 hrs by LC-MS/MS analysis. The data set is classed as ADME, organism-based. To be noted: in vivo.
The next data set addresses Albumin (Homo sapiens, UniProt P02768). The experiment in a line: Binding affinity to serum albumin in human plasma. In kind it is ADME, cell-free.
The nature of data set [5]: Oral bioavailability in male Sprague-Dawley rat at 0.1 mg/kg measured upto 8 hrs by LC-MS/MS analysis. The data set is classed as ADME, organism-based. To be noted: in vivo.
The nature of data set [6]: Cmax in male Sprague-Dawley rat at 0.1 mg/kg, po measured upto 8 hrs by LC-MS/MS analysis. To be noted: in vivo.
Data set [7] can be described thus: Volume of distribution at steady state in male Sprague-Dawley rat at 0.1 mg/kg, iv measured upto 8 hrs by LC-MS/MS analysis. In kind it is ADME, organism-based. To be noted: in vivo.
Data set [8] is described as follows: AUC (0 to 8 hrs) in male Sprague-Dawley rat at 0.1 mg/kg, po measured upto 8 hrs by LC-MS/MS analysis. In kind it is ADME, organism-based. The conditions noted are these: in vivo.
Data set [9] can be described thus: Solubility of compound at pH 6.8 incubated for 4 hrs by HPLC or LC-MS/MS analysis. In kind it is physicochemical. The conditions noted are these: buffer, pH 6.8, 4 h.
Data set [10] can be described thus: Solubility of compound at pH 1.2 incubated for 4 hrs by HPLC or LC-MS/MS analysis. The data set is classed as physicochemical. The conditions noted are these: buffer, pH 1.2, 4 h.
Data set [11] is described as follows: Plasma protein binding in rat assessed as unbound fraction at 1 uM incubated for 6 hrs by LC/MS/MS based equilibrium dialysis method. The data set is classed as ADME, cell-free.
The conditions of data set [12]: pampa, 4 h, 500 µM.
Data set [13] has as its target Transthyretin (Homo sapiens, UniProt P02766). The data set is described as follows: Binding affinity to TTR in human plasma assessed as target occupancy incubated for 6 hrs in presence of E)-S-phenyl 3-(4-hydroxy-3,5-dimethyistyryl)benzothioate by fluorescence based competitive binding assay. In kind it is cell-free.
For data set [14], the target named is Transthyretin (Homo sapiens, UniProt P02766, V50M). The experiment in a line: Binding affinity to TTR V30M mutant (unknown origin) assessed as dissociation constant by ITC analysis.

Albumin, sequence (P02768 whole entry): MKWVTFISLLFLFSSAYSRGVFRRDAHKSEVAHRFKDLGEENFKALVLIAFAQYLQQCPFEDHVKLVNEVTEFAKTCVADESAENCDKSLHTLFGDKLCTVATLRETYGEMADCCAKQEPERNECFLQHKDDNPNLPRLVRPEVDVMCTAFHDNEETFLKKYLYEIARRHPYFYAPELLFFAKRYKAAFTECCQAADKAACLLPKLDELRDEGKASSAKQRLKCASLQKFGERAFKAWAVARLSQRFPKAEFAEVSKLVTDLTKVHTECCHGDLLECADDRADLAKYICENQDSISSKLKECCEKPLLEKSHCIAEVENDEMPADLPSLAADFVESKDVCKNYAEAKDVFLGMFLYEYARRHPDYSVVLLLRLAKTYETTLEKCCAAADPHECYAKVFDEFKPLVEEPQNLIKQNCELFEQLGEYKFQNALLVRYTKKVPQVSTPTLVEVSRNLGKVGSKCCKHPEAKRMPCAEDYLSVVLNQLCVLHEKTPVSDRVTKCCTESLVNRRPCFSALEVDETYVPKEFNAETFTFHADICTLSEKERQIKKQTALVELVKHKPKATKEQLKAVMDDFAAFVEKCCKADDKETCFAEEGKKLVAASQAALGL

`O=C(O)c1ccc2nc(-c3cc(Cl)cc(Cl)c3)oc2c1` gave a C0 at 8 h in data set [1] of 519 ng/mL. The Tmax in data set [2] was 4 h. The AUC in data set [3] came to 2363 ng·h/mL; in data set [8] it was 1500 ng·h/mL. The CL in [4] is 0.0993 mL/min/kg. For the same molecule, the result on Albumin was Active. Also, the bioavailability in data set [5] was found to be 63.5%. Also, in data set [6], the Cmax turned out to be 235 ng/mL. Also, in [7], the Vdss was determined as 0.311 L/kg.

Consider `CCc1oc2cccc(Cl)c2c1C(=O)c1cc(I)c(O)c(I)c1`, for which the C0 at 8 h in data set [1] was 1720 ng/mL. Moreover, in [2], the Tmax is 4 h. Moreover, the AUC in data set [3] worked out at 3726 ng·h/mL; in [8] it was 2524 ng·h/mL. Also, the CL in data set [4] stood at 0.343 mL/min/kg. Besides, the solubility is over 100 µM in data set [9] and under 0.01 µM in data set [10]. Moreover, the Cmax in data set [6] is 395 ng/mL. For the same molecule, the Vdss in [7] came to 0.112 L/kg. Also, the Fu in [11] is under 0.01%.

As to `O=C(O)c1cc(/N=N/c2ccc(S(=O)(=O)Nc3ccccn3)cc2)ccc1O` [SULFASALAZINE], the permeability in data set [12] was 0.038 10^-6 cm/s.

Molecule `CCc1oc2c(Cl)ccc(Cl)c2c1C(=O)c1cc(I)c(O)c(I)c1` registered a C0 at 8 h in data set [1] of 1340 ng/mL. In data set [2], the Tmax is 4 h. The AUC came to 1746 ng·h/mL in [3] and 350 ng·h/mL in data set [8]. This molecule also displayed a CL in data set [4] of 0.662 mL/min/kg. Besides, the solubility in data set [9] was 89.5 µM (≈ 52.5 µg/mL); in data set [10] it was under 0.02 µM. For the same molecule, in data set [6], the Cmax was determined as 77 ng/mL. The Vdss in [7] was determined as 0.269 L/kg. Also, in data set [11], the Fu is recorded as under 0.01%.

In the case of `COCCc1ccc(OCC(O)CNC(C)C)cc1` (stereo not given) [METOPROLOL], in [12], the permeability is listed as 1.8 10^-6 cm/s.

Take `CCc1oc2cccc(I)c2c1C(=O)c1cc(I)c(O)c(I)c1`: the C0 at 8 h in [1] was 1540 ng/mL. Further, the Tmax in data set [2] was 4 h. For the same molecule, the figures for the AUC in [3] and in data set [8] were 2961 ng·h/mL and 1489 ng·h/mL, respectively. In data set [4], this molecule registered a CL of 0.405 mL/min/kg. Besides, the figures for the solubility in data set [9] and in data set [10] were over 100 µM and under 0.02 µM, respectively. Also, the result on Albumin was Active. Besides, the maximum concentration (Cmax) in data set [6] amounted to 240 ng/mL. In addition, the Vdss in data set [7] was 0.153 L/kg. Besides, the Fu in data set [11] was under 0.01%.

Turning to `CCc1oc2ccccc2c1C(=O)c1cc(I)c(O)c(I)c1` [BENZIODARONE], at Transthyretin [13], the EC50 is 8.9 µM. Moreover, the outcome at Albumin was Active. The Kd on Transthyretin [14] stood at 0.078 µM.

Consider `CCc1oc2cccc(C)c2c1C(=O)c1cc(I)c(O)c(I)c1`, for which the C0 at 8 h in data set [1] came to 1640 ng/mL. For the same molecule, the Tmax in data set [2] came out at 4 h. In addition, the values for the AUC in data set [3] and in data set [8] were 3102 ng·h/mL and 1918 ng·h/mL, respectively. This molecule gave a CL in data set [4] of 0.44 mL/min/kg. In addition, the solubility in [9] was over 100 µM; in data set [10] it was under 0.01 µM. In [6], this molecule gave a Cmax of 303 ng/mL. In [7], this molecule yielded a Vdss of 0.123 L/kg. Also, the Fu in data set [11] is reported as under 0.01%.

In data set [1], `CCc1oc2cccc(Br)c2c1C(=O)c1cc(I)c(O)c(I)c1` had a C0 at 8 h of 1740 ng/mL. Moreover, the Tmax in data set [2] came to 4 h. Further, the AUC in data set [3] is 3708 ng·h/mL; in data set [8] it was 2476 ng·h/mL. The molecule further registered a CL in [4] of 0.343 mL/min/kg. Besides, the solubility in data set [9] is over 100 µM; in data set [10], 0.054 µM (≈ 0.0322 µg/mL). Further, the peak concentration (Cmax) in [6] was determined as 390 ng/mL. In data set [7], this molecule registered a Vdss of 0.113 L/kg. In [11], the Fu is recorded as under 0.01%.
